From US20100056508A1, “AMINE DERIVATIVES AND THEIR USE IN BETA-2-ADRENORECEPTOR MEDIATED DISEASES” (ASTRAZENECA AB, priority 2006, published 2010)
Where a name gives a salt, the structure may show the parent alone.

Biological target: T1, recombinant human α1D receptor (Homo sapiens, UniProt P25100)
T1 construct: expressed in transfected cells; host or cells: human embryonic kidney 293 cells (HEK93 [sic]), membranes
T1 sequence (P25100 1-572): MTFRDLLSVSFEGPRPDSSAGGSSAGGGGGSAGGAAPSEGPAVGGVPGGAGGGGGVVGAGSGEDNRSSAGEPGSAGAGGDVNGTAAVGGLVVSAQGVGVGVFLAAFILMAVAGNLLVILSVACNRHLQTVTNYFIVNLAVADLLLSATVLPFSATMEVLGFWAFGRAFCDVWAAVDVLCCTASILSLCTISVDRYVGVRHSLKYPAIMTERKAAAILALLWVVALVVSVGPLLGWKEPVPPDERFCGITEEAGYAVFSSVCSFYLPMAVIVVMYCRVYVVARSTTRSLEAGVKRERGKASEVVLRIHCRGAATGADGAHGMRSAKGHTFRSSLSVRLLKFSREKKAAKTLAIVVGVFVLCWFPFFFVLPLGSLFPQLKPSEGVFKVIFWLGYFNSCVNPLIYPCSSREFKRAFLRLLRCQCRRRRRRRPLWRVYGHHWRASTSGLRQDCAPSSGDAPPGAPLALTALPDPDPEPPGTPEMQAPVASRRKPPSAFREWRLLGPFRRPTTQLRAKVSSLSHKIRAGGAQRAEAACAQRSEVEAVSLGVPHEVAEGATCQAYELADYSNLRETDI
Test: Adrenergic α1D selectivity assay, [3H]-prazosin binding to membranes
Conditions: inhibition of [3H]-prazosin binding, HEK cell membranes, read-out: α1 bind pIC50 (converted)
Experimental: Membranes were prepared from human embryonic kidney 293 ([…]) cells expressing recombinant human α1D receptor. These were diluted in Assay Buffer (50 mM HEPES, 1 mM EDTA, pH 7.4) to provide a final concentration of membranes that gave a clear window between maximum and minimum specific binding.
Assays were performed in U-bottomed 96-well polypropylene plates. 10 μL [^3H]-prazosin (0.3 nM final concentration) and […] of test compound (10× final concentration) were added to each test well. For each assay plate 8 replicates were obtained for [^3H]-prazosin binding in the presence of 10 μL vehicle (10% (v/v) DMSO in Assay Buffer; defining maximum binding) or 10 μL BMY7378 (10 μM final concentration; defining non-specific binding (NSB)). Membranes were then added to achieve a final volume of 100 μL. The plates were incubated for 2 hours at room temperature and then filtered onto PEI coated GF/B filter plates, pre-soaked for 1 hour in Assay Buffer, using a 96-well plate Tomtec cell harvester. Five washes with 250 μL wash buffer (50 mM HEPES, 1 mM EDTA, pH 7.4) were performed at 4° C. to remove unbound radioactivity. The plates were dried then sealed from underneath using Packard plate sealers and MicroScint-O (50 μL) was added to each well. The plates were sealed (TopSeal A) and filter-bound radioactivity was measured with a scintillation counter (TopCount, Packard BioScience) using a 3-minute counting protocol.
Total specific binding (B0) was determined by subtracting the mean NSB from the mean maximum binding. NSB values were also subtracted from values from all other wells. […] Data was fitted to a four parameter logistic equation to determine the compound potency, which was expressed as pIC50 (negative log molar concentration inducing 50% inhibition of [^3H]-prazosin binding).

Row | IC50 | SMILES
1 | 0.251 µM | CCCC[C@@H](C)N(CCNCCc1ccc(O)c2c1OCC(=O)N2)C(=O)CCNCCc1ccc(Cl)c(Cl)c1 [Example 55, (R)-3-(3,4-Dichlorophenethylamino)-N-(hexan-2-yl)-N-(2-(2-(5-hydroxy-3-oxo-3,4-dihydro-2H-benzo[b][1,4]oxazin-8-yl)ethylamino)ethyl)propanamide bis(trifluoroacetate)]
2 | 0.251 µM | O=C1COc2c(CCNCCN(C(=O)CCNCCc3cc(F)cc(Cl)c3)C3CCCCC3)ccc(O)c2N1 [Example 41, 3-(3-Chloro-5-fluorophenethylamino)-N-cyclohexyl-N-(2-(2-(5-hydroxy-3-oxo-3,4-dihydro-2H-benzo[b][1,4]oxazin-8-yl)ethylamino)ethyl)propanamide (trifluoroacetate)]
3 | 0.0794 µM | O=C(CCNCCc1ccc(Cl)cc1)N(CCNCCc1ccc(O)c2[nH]c(=O)ccc12)C1CCCCCC1 [Example 4, 3-(4-Chlorophenethylamino)-N-cycloheptyl-N-(2-(2-(8-hydroxy-2-oxo-1,2-dihydroquinolin-5-yl)ethylamino)ethyl)propanamide bis(trifluoroacetate)]
4 | 0.2 µM | O=C1COc2c(CCNCCN(C(=O)CCNCCc3ccc(F)c(F)c3)C3CCCCC3)ccc(O)c2N1 [Example 42, N-Cyclohexyl-3-(3,4-difluorophenethylamino)-N-(2-(2-(5-hydroxy-3-oxo-3,4-dihydro-2H-benzo[b][1,4]oxazin-8-yl)ethylamino)ethyl)propanamide bis(trifluoroacetate)]
5 | 0.631 µM | O=C1COc2c(CCNCCN(C(=O)CCOCCc3ccc(F)cc3)C3CCCCC3)ccc(O)c2N1 [Example 75, N-Cyclohexyl-3-(4-fluorophenethoxy)-N-(2-(2-(5-hydroxy-3-oxo-3,4-dihydro-2H-benzo[b][1,4]oxazin-8-yl)ethylamino)ethyl)propanamide trifluoroacetate]
6 | 0.126 µM | O=C1COc2c(CCNCCN(C(=O)CCNCCc3cccc(Cl)c3)C3CCCCC3)ccc(O)c2N1 [Example 27, 3-(3-Chlorophenethylamino)-N-cyclohexyl-N-(2-(2-(5-hydroxy-3-oxo-3,4-dihydro-2H-benzo[b][1,4]oxazin-8-yl)ethylamino)ethyl)propanamide bis(trifluoroacetate)]
7 | 0.158 µM | O=C1COc2c(CCNCCN(C(=O)CCNCCc3cc(F)ccc3F)C3CCCCC3)ccc(O)c2N1 [Example 38, N-Cyclohexyl-3-(2,5-difluorophenethylamino)-N-(2-(2-(5-hydroxy-3-oxo-3,4-dihydro-2H-benzo[b][1,4]oxazin-8-yl)ethylamino)ethyl)propanamide bis(trifluoroacetate)]
8 | 0.0501 µM | CCCC[C@@H](C)N(CCNCCc1ccc(O)c2c1OCC(=O)N2)C(=O)CCNCCc1cccc(Cl)c1 [Example 44, (R)-3-(3-Chlorophenethylamino)-N-(hexan-2-yl)-N-(2-(2-(5-hydroxy-3-oxo-3,4-dihydro-2H-benzo[b][1,4]oxazin-8-yl)ethylamino)ethyl)propanamide bis(trifluoroacetate)]
9 | 0.501 µM | O=C(CCNCCc1cc(F)cc(F)c1)N(CCNCCc1ccc(O)c2[nH]c(=O)ccc12)C1CCCCC1 [Example 15, N-Cyclohexyl-3-(3,5-difluorophenethylamino)-N-(2-(2-(8-hydroxy-2-oxo-1,2-dihydroquinolin-5-yl)ethylamino)ethyl)propanamide bis(trifluoroacetate)]
10 | 0.251 µM | CCCC[C@@H](C)N(CCNCCc1ccc(O)c2c1OCC(=O)N2)C(=O)CCNCCc1ccc(Cl)cc1 [Example 45, (R)-3-(4-Chlorophenethylamino)-N-(hexan-2-yl)-N-(2-(2-(5-hydroxy-3-oxo-3,4-dihydro-2H-benzo[b][1,4]oxazin-8-yl)ethylamino)ethyl)propanamide bis(trifluoroacetate)]
11 | 0.0794 µM | O=C(CCNCCc1cccc(Cl)c1)N(CCNCCc1ccc(O)c2[nH]c(=O)ccc12)C1CCCCC1 [Example 13, 3-(3-Chlorophenethylamino)-N-cyclohexyl-N-(2-(2-(8-hydroxy-2-oxo-1,2-dihydroquinolin-5-yl)ethylamino)ethyl)propanamide bis(trifluoroacetate)]
12 | 0.0501 µM | O=C1COc2c(CCNCCN(C(=O)CCNCCc3ccccc3)C3CCCCCC3)ccc(O)c2N1 [Example 24, N-Cycloheptyl-N-(2-(2-(5-hydroxy-3-oxo-3,4-dihydro-2H-benzo[b][1,4]oxazin-8-yl)ethylamino)ethyl)-3-(phenethylamino)propanamide bis(trifluoroacetate)]
13 | 0.0631 µM | CCCC[C@@H](C)N(CCNCCc1ccc(O)c2c1OCC(=O)N2)C(=O)CCNCCc1ccccc1 [Example 25, (R)—N-(Hexan-2-yl)-N-(2-(2-(5-hydroxy-3-oxo-3,4-dihydro-2H-benzo[b][1,4]oxazin-8-yl)ethylamino)ethyl)-3-(phenethylamino)propanamide bis(trifluoroacetate)]
14 | 0.251 µM | O=C1COc2c(CCNCCN(C(=O)CCNCCc3ccc(Cl)cc3)C3CCCCC3)ccc(O)c2N1 [Example 32, 3-(4-Chlorophenethylamino)-N-cyclohexyl-N-(2-(2-(5-hydroxy-3-oxo-3,4-dihydro-2H-benzo[b][1,4]oxazin-8-yl)ethylamino)ethyl)propanamide bis(trifluoroacetate)]
15 | 0.398 µM | O=C1COc2c(CCNCCN(C(=O)CCNCCc3cc(F)cc(Cl)c3)C3CCCCCC3)ccc(O)c2N1 [Example 66, 3-(3-Chloro-5-fluorophenethylamino)-N-cycloheptyl-N-(2-(2-(5-hydroxy-3-oxo-3,4-dihydro-2H-benzo[b][1,4]oxazin-8-yl)ethylamino)ethyl)propanamide bis(trifluoroacetate)]
16 | 0.2 µM | CCCC[C@@H](C)N(CCNCCc1ccc(O)c2c1OCC(=O)N2)C(=O)CCNCCc1ccc(F)c(F)c1 [Example 52, (R)-3-(3,4-Difluorophenethylamino)-N-(hexan-2-yl)-N-(2-(2-(5-hydroxy-3-oxo-3,4-dihydro-2H-benzo[b][1,4]oxazin-8-yl)ethylamino)ethyl)propanamide bis(trifluoroacetate)]
17 | 0.316 µM | CCCC[C@@H](C)N(CCNCCc1ccc(O)c2c1OCC(=O)N2)C(=O)CCNCCc1ccc(Cl)s1 [Example 49, (R)-3-(2-(5-Chlorothiophen-2-yl)ethylamino)-N-(hexan-2-yl)-N-(2-(2-(5-hydroxy-3-oxo-3,4-dihydro-2H-benzo[b][1,4]oxazin-8-yl)ethylamino)ethyl)propanamide bis(trifluoroacetate)]
18 | 0.2 µM | CCCC[C@@H](C)N(CCNCCc1ccc(O)c2c1OCC(=O)N2)C(=O)CCNCCc1cccc(F)c1F [Example 53, (R)-3-(2,3-Difluorophenethylamino)-N-(hexan-2-yl)-N-(2-(2-(5-hydroxy-3-oxo-3,4-dihydro-2H-benzo[b][1,4]oxazin-8-yl)ethylamino)ethyl)propanamide bis(trifluoroacetate)]

Row | SMILES | IC50
19 | CCCC[C@@H](C)N(CCNCCc1ccc(O)c2c1OCC(=O)N2)C(=O)CCNCCc1cc(F)ccc1C [Example 57, (R)-3-(5-Fluoro-2-methylphenethylamino)-N-(hexan-2-yl)-N-(2-(2-(5-hydroxy-3-oxo-3,4-dihydro-2H-benzo[b][1,4]oxazin-8-yl)ethylamino)ethyl)propanamide bis(trifluoroacetate)] | 0.1 µM
